Measured values published in PMC3086806, “Mining a Cathepsin Inhibitor Library for New Antiparasitic Drug Leads” (PLoS Neglected Tropical Diseases, 2011).

Experiments:
cruzain = target: T1, cruzain (Trypanosoma cruzi, UniProt P25779); assay: Cruzain protease inhibition assay (Z-Phe-Arg-AMC); assay type: biochemical
T1 construct: made in house
Procedure: (§1) Recombinant cruzain, rhodesain, TbCatB, falcipain-2 and falcipain-3 were expressed as described previously, [39], [40], [41], [42]. Inhibitor stock solutions were prepared in DMSO and screened at 0.1 µM for cruzain and rhodesain, 1 µM for TbCatB and 50 nM for falcipain-3 (0.5% DMSO in assay). […] Protease inhibition assays for cruzain and rhodesain were carried out in 96 well plate format as described previously. Cruzain (4 nM), rhodesain (4 nM) or TbCatB (258 nM) was incubated with test compound in 100 mM sodium acetate, pH 5.5, containing 5 mM DTT and 0.01% Triton X-100 (buffer A), for 5 min at room temperature (the higher concentration of TbCatB was required due to its lower intrinsic activity against the fluorogenic substrate). Then buffer A containing Z-Phe-Arg-AMC (Bachem) was added to enzyme-compound mixture to give 10 µM substrate in a final assay volume of 200 µL. The rate of free AMC release was measured at excitation and emission wavelengths of 355 and 460 nm, respectively, with a microtiter plate spectrofluorimeter (SpectraMax M5, Molecular Devices) for 3 min. Percentage inhibition of test compound was calculated relative to the DMSO control (0% inhibition control). IC50 values were determined with Prism 4 software (GraphPad, San Diego, CA) using sigmoidal dose-response variable slope model.

TbCatB = target: T2, TbCatB (Trypanosoma brucei, UniProt Q6R7Z5); assay: TbCatB protease inhibition assay (Z-Phe-Arg-AMC); assay type: biochemical
T2 construct: made in house
T2 sequence (Q6R7Z5 23-340): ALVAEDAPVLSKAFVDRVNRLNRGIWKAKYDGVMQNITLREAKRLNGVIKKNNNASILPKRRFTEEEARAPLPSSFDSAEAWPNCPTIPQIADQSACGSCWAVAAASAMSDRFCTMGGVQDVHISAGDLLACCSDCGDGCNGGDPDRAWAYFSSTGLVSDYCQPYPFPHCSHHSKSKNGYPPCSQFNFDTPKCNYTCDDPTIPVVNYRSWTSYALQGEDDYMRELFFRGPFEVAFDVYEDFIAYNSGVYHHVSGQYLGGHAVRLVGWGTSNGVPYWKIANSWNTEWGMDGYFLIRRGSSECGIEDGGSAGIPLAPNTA
Procedure: as §1

[1] = Toxicity toward host BESM cells in the T. cruzi assay; assay type: cell-based, bovine; conditions: bovine; highest assay concentration 20 µM
Procedure: (§2) The growth inhibition assay for the intracellular T. cruzi was conducted in 96-well plate format as described previously. Briefly, bovine embryo skeletal muscle (BESM) cells (2×10^3/well), seeded overnight, were infected with CA-I/72 T. cruzi trypomastigotes (2×10^3/well). Sixteen hours post-infection, test compounds (serial dilution concentrations starting from 20 µM) were added and assay plates were incubated for an additional 72 hours at 37°C with 5% CO2. Cells were then washed once in PBS, fixed with 4% paraformaldehyde and stained with DNA fluorescent dye DAPI (4′ 6-diamidino-2-phenylindole). The assay plates were then imaged in the IN Cell Analyzer 2000 (GE Healthcare) with the excitation and emission filters set of 350 nm and 460 nm, respectively, to detect DAPI signals. The feature extraction module in IN Cell Developer Toolbox 1.7 software was used to count host nuclei and parasite kinetoplasts by size difference.
All falcipain-3 inhibitors were also tested against falcipain-2. […] The entire library was examined for cytotoxicity to a mammalian cell line (Jurkat) at a concentration of 10 µM, and those compounds studied in the T. cruzi assay were also evaluated for toxicity (at 20 µM) toward the host BESM cells used in that assay. […]

[2] = test system: intracellular T. cruzi (CA-I/72) in BESM cells; assay: T. cruzi amastigote growth inhibition assay; assay type: cell-based; conditions: Trypanosoma cruzi; infected BESM cells, 72 hours
Procedure: as §2

rhodesain = target: T3, rhodesain (Trypanosoma brucei rhodesiense, UniProt Q95PM0); assay: Rhodesain protease inhibition assay (Z-Phe-Arg-AMC); assay type: biochemical
T3 construct: made in house
T3 sequence (Q95PM0 entry or part of it): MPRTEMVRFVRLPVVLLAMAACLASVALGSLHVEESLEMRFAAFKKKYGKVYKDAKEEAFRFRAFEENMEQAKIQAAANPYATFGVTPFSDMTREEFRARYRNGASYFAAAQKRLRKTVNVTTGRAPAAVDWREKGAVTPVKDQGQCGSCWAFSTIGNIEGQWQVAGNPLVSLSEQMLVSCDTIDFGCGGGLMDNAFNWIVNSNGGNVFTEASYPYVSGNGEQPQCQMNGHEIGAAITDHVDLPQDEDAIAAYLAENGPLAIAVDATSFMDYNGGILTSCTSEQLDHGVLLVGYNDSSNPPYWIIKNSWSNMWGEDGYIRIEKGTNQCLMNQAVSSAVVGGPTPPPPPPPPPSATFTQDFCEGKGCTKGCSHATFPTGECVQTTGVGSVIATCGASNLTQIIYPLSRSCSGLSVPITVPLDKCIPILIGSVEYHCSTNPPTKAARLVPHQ
Procedure: as §1

[3] = test system: T. brucei brucei clone 427-221a bloodstream forms; assay: T. brucei brucei growth inhibition assay; assay type: cell-based; conditions: Trypanosoma brucei; 40 hours
Procedure: The growth inhibition assay for T. brucei brucei was conducted as described previously. Bloodstream forms of the monomorphic T. brucei brucei clone 427-221a were grown in complete HMI-9 medium containing 10% FBS, 10% Serum Plus medium (Sigma Inc. St. Louis Mo. USA), 50 U/mL penicillin and 50 µg/mL streptomycin (Invitrogen) at 37°C under a humidified atmosphere and 5% CO2. […] 5 µL of each dilution was added to 95 µL of diluted parasites (1×10^4 cells per well) in sterile Greiner 96-well flat white opaque culture plates such that the final DMSO concentration was 0.5%. The 0% inhibition control wells contained 0.5% DMSO while 100% inhibition control wells contained 50 µM thimerosal (Sigma). After compound addition, plates were incubated for 40 hours at 37°C. At the end of the incubation period, 50 µL of CellTiter-Glo™ reagent (Promega Inc., Madison, WI, USA) was added to each well and plates were placed on an orbital shaker at room temperature for 2 min to induce lysis. After an additional 10 min incubation without shaking to stabilize the signal, the ATP-bioluminescence of each well was determined using an Analyst HT plate reader (Molecular Devices, Sunnyvale, CA, USA). Raw values were converted to log10 and percentage inhibition calculated relative to the controls. IC50 curve fittings were performed with Prism 4 software as above.

[4] = Jurkat cell cytotoxicity assay; assay type: cell-based; conditions: human, Jurkat cells (clone E6-1), read-out: Cytotoxicity (% inhibition at 10 µM) Jurkat cells
Procedure: Jurkat cells (clone E6-1) were grown in complete RPMI-1640 medium containing 10% FBS, 50 U/mL penicillin and 50 µg/mL streptomycin (Invitrogen) at 37°C under a humidified atmosphere and 5% CO2. For cytotoxicity testing, cells were diluted to 1×10^5 per ml in complete RPMI-1640 medium. Test compound stocks were prepared in 100% DMSO and screened at 10 µM against cells (1×10^4 cells per well) in sterile Greiner 96-well flat white opaque culture plates (0.5% final DMSO concentration). The 0% inhibition control wells contained 0.5% DMSO while 100% inhibition control wells contained 40 µM staurosporine. After compound addition, plates were incubated for 40 hr at 37°C. At the end of the incubation period, 50 µL of CellTiter-Glo™ reagent (Promega Inc., Madison, WI, USA) was added to each well and plates were placed on an orbital shaker at room temperature for 2 min to induce lysis. After a further 10 min incubation without shaking to stabilize the signal, the ATP-bioluminescence of each well was determined using an Analyst HT plate reader (Molecular Devices, Sunnyvale, CA, USA). Calculations of percentage inhibition and IC50 were performed similar to those in the T. brucei brucei assay.

human cathepsin B = target: human cathepsin B; set-up: method as in data provided by Celera Genomics; conditions: historical data; ref data provided by Celera Genomics; read-out: Ki catB; cited from earlier work
human cathepsin L = target: human cathepsin L; set-up: method as in data provided by Celera Genomics; conditions: historical data; ref data provided by Celera Genomics; read-out: Ki catL; cited from earlier work

T1 sequence (P25779 123-467): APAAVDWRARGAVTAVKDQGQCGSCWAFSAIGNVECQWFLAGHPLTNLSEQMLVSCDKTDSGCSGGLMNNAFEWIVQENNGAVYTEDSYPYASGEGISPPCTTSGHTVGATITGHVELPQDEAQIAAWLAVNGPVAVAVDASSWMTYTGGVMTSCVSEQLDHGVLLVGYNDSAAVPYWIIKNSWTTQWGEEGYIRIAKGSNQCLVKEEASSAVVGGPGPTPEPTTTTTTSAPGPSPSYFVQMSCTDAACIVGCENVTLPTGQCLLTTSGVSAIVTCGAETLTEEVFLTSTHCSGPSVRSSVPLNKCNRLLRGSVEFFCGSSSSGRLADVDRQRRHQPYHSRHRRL

For CCCCC(NC(=O)C(CCC)NC(c1ccc(-c2ccc(S(C)(=O)=O)cc2)cc1)C(F)(F)F)C(=O)c1nnc(-c2ccco2)o1 (stereo not drawn) [Compound 24], the IC50 (cruzain) was 10 nM, the IC50 (TbCatB) was 50 nM and the GI50 at 72 h [1] was over 20 µM. For the same compound, the GI50 [2] was 7.6 µM, the IC50 (rhodesain) was 6 nM and the GI50 [3] was 7 µM. For the same compound, the cytotoxicity at 40 h, 10 µM [4] was under 5%, the Ki (human cathepsin B) was 1.6 nM and the Ki (human cathepsin L) was 18 nM.
